Experimental data as given in patent EP1096933B1, “USE OF AN INHIBITOR OF CYTOCHROME P450 OPTIONALLY COMBINED WITH AN ANTIFUNGAL AGENT FOR TREATING MYCOSES” (priority 1998, dated 2000).
Read-outs that look alike come from different tables or passages of the source.

Tests used:
Test in all cases: growth of strains streaked on Sabouraud agar containing the products
Format in all cases: cell-based
Epidermophyton floccosum = settings: Epid.Flocosum, read-out: % DE CROISSANCE
Description: (§1) Ces molécules ont été incorporées dans un milieu gélosé dit de Sabouraud (peptone 10g/l, glucose 10 g/l, gomme agar 15 g/l).
(§2) Des souches de diverses espèces de champignons ont été ensemencées par stries par la méthode de Stires.
(§3) Le pourcentage de croissance a été mesuré au cours du temps, pour des périodes allant jusqu'à 21 jours, pour certaines des souches testées.
(§4) Les quantités de pipéronyl butoxyde, et de cyclopyroxolamine utilisées sont identiques et sont de 10 ou 20 µg/ml dans le cas de l'association entre ces deux composés.
(§5) Dans le cas de l'association entre le pipéronyl butoxyde et l'éconazole, elles sont respectivement de 10 ou 20 µg/ml de pipéronyl butoxyde et de 1 µg/ml d'éconazole.
(§6) Des souches appartenant aux espèces suivantes ont été testées: Microsporum canis, Trichophyton rubrum, Trichophyton interdigitale, Trichophyton mentagrophytes, Microsporum persicolor, Epidermophyton floccosum, Trichophyton violaceum et Trichophyton soudanense.
(§7) L'activité du pipéronyl butoxyde seul a été testée à diverses concentrations, comme indiqué dans le tableau 1 sur le milieu de Sabouraud, dépourvu de tout autre fongicide.

Microsporum canis = settings: read-out: % DE CROISSANCE
Description: as §1, §2, §3, §4, §5, §6, §7

Microsporum persicolor = settings: Nannizzia persicolor, Micro.Persicolor, 10µg/ml each product, read-out: % DE CROISSANCE
Description: as §1, §2, §3, §4, §5, §6, §7

[1] = test system: Trichophyton interdigitale; settings: Tric.Interdigitale, read-out: % DE CROISSANCE
Description: as §1, §2, §3, §4, §5, §6, §7

[2] = test system: Trichophyton mentagrophytes; settings: Tric.Mentagophytes, read-out: % DE CROISSANCE
Description: as §1, §2, §3, §4, §5, §6, §7

Trichophyton rubrum = settings: Tric.Rubrum, read-out: % DE CROISSANCE
Description: as §1, §2, §3, §4, §5, §6, §7

Trichophyton soudanense = settings: Tric.Soudanese, read-out: % DE CROISSANCE
Description: as §1, §2, §3, §4, §5, §6, §7

Trichophyton violaceum = settings: Tric.Violaceum, read-out: % DE CROISSANCE
Description: as §1, §2, §3, §4, §5, §6, §7

[3] = 144 h, J6, 10µg/ml each product
[4] = 240 h, J10, 10µg/ml each product
[5] = 336 h, J14, 10µg/ml each product
[6] = 144 h, J6, 20µg/ml each product
[7] = 240 h, J10, 20µg/ml each product
[8] = 336 h, J14, 20µg/ml each product

Q: How did the activity at 10 µg/mL (Epidermophyton floccosum; 0 h, J0, 10µg/ml each product) turn out when `Cc1cc(C2CCCCC2)n(O)c(=O)c1` [Cyclopiroxolamine, cyclopiroxolamine] was run?
A: 0%

Q: And the activity at 10 µg/mL (Epidermophyton floccosum; 96 h, J4, 10µg/ml each product)?
A: 0%

Q: And the activity at 10 µg/mL (Epidermophyton floccosum; [3])?
A: 0%

Q: What about the activity at 10 µg/mL (Epidermophyton floccosum; [4]) of the same compound?
A: 85%

Q: What about the activity at 10 µg/mL (Epidermophyton floccosum; [5]) of the same compound?
A: 100%

Q: And the activity at 20 µg/mL (Microsporum canis; 0 h)?
A: 0%

Q: What about the activity at 20 µg/mL (Microsporum canis; 96 h) of the same compound?
A: 5%

Q: What about the activity at 20 µg/mL (Microsporum canis; 144 h) of the same compound?
A: 20%

Q: What about the activity at 20 µg/mL (Microsporum canis; 240 h) of the same compound?
A: 60%

Q: What about the activity at 20 µg/mL (Microsporum canis; 336 h) of the same compound?
A: 100%

Q: What about the activity at 10 µg/mL (Microsporum persicolor; 0 h, J0) of the same compound?
A: 0%

Q: What about the activity at 10 µg/mL (Microsporum persicolor; 96 h, J4) of the same compound?
A: 0%

Q: What about the activity at 10 µg/mL (Microsporum persicolor; 144 h, J6) of the same compound?
A: 30%

Q: What about the activity at 10 µg/mL (Microsporum persicolor; 240 h, J10) of the same compound?
A: 75%

Q: What about the activity at 10 µg/mL (Microsporum persicolor; 336 h, J14) of the same compound?
A: 100%

Q: And the activity at 20 µg/mL ([1]; 0 h, J0, 20µg/ml each product)?
A: 0%

Q: What about the activity at 20 µg/mL ([1]; 96 h, J4, 20µg/ml each product) of the same compound?
A: 5%

Q: And the activity at 20 µg/mL [1, 6]?
A: 10%

Q: What about the activity at 20 µg/mL [1, 7] of the same compound?
A: 80%

Q: What about the activity at 20 µg/mL [1, 8] of the same compound?
A: 90%

Q: And the activity at 20 µg/mL ([2]; 0 h, J0, 20µg/ml each product)?
A: 0%

Q: And the activity at 20 µg/mL ([2]; 96 h, J4, 20µg/ml each product)?
A: 5%

Q: What about the activity at 20 µg/mL [2, 6] of the same compound?
A: 60%

Q: What about the activity at 20 µg/mL [2, 7] of the same compound?
A: 100%

Q: And the activity at 20 µg/mL [2, 8]?
A: 100%

Q: And the activity at 20 µg/mL (Trichophyton rubrum; 0 h, J0, 20µg/ml each product)?
A: 0%

Q: What about the activity at 20 µg/mL (Trichophyton rubrum; 96 h, J4, 20µg/ml each product) of the same compound?
A: 0%

Q: What about the activity at 20 µg/mL (Trichophyton rubrum; [6]) of the same compound?
A: 50%

Q: And the activity at 20 µg/mL (Trichophyton rubrum; [7])?
A: 80%

Q: And the activity at 20 µg/mL (Trichophyton rubrum; [8])?
A: 100%

Q: What about the activity at 10 µg/mL (Trichophyton soudanense; 0 h, J0, 10µg/ml each product) of the same compound?
A: 0%

Q: What about the activity at 10 µg/mL (Trichophyton soudanense; 96 h, J4, 10µg/ml each product) of the same compound?
A: 0%

Q: What about the activity at 10 µg/mL (Trichophyton soudanense; [3]) of the same compound?
A: 0%

Q: What about the activity at 10 µg/mL (Trichophyton soudanense; [4]) of the same compound?
A: 30%

Q: What about the activity at 10 µg/mL (Trichophyton soudanense; [5]) of the same compound?
A: 60%

Q: What about the activity at 10 µg/mL (Trichophyton violaceum; 0 h, J0, 10µg/ml each product) of the same compound?
A: 0%

Q: And the activity at 10 µg/mL (Trichophyton violaceum; 96 h, J4, 10µg/ml each product)?
A: 0%

Q: What about the activity at 10 µg/mL (Trichophyton violaceum; [3]) of the same compound?
A: 40%

Q: And the activity at 10 µg/mL (Trichophyton violaceum; [4])?
A: 60%

Q: And the activity at 10 µg/mL (Trichophyton violaceum; [5])?
A: 100%
